Here are results for one molecule from ChEMBL document CHEMBL4715869, “N-(Pyrimidin-2-yl)-1,2,3,4-tetrahydroisoquinolin-6-amine Derivatives as Selective Janus Kinase 2 Inhibitors for the Treatment of Myeloproliferative Neoplasms” (J Med Chem, 2020).

Data set [1] can be described thus: Selectivity index, ratio of IC50 for inhibition of recombinant human TYK2 (875 to end residues) to IC50 for inhibition of recombinant human JAK2 (808 to end residues).
In data set [2] the test system is SET-2. Nature of the data set: Induction of apoptosis in human SET-2 cells assessed as late apoptotic cells at 1.6 uM incubated for 24 hrs by Annexin V/PI staining based flow cytometric analysis (reference value: 1.52%). Format: functional. Background: Flow cytometry measures light scatter and fluorescence of single cells or particles in a stream.
For data set [3], the system named is SET-2. Nature of the data set: Induction of apoptosis in human SET-2 cells assessed as live cells at 0.2 uM incubated for 24 hrs by Annexin V/PI staining based flow cytometric analysis (reference value: 96.23 %). Format: functional.
Data set [4] relates to BaF3. Nature of the data set: Antitumor activity against mouse BAF3 cells harboring JAK2 V617F mutant implanted in Balb/c mouse assessed as decrease in spleen weight at 60 mg/kg, po qd administered starting from day 4 to 20 and measured on day 25 relative to control. The settings on record: time 21 day. Also on record: scale not given: the % may be the effect or the level left. Format: functional.

Data set [5] addresses T1, Signal transducer and transcription activator 6 (Mus musculus) (UniProt P52633).
T1 sequence (whole entry): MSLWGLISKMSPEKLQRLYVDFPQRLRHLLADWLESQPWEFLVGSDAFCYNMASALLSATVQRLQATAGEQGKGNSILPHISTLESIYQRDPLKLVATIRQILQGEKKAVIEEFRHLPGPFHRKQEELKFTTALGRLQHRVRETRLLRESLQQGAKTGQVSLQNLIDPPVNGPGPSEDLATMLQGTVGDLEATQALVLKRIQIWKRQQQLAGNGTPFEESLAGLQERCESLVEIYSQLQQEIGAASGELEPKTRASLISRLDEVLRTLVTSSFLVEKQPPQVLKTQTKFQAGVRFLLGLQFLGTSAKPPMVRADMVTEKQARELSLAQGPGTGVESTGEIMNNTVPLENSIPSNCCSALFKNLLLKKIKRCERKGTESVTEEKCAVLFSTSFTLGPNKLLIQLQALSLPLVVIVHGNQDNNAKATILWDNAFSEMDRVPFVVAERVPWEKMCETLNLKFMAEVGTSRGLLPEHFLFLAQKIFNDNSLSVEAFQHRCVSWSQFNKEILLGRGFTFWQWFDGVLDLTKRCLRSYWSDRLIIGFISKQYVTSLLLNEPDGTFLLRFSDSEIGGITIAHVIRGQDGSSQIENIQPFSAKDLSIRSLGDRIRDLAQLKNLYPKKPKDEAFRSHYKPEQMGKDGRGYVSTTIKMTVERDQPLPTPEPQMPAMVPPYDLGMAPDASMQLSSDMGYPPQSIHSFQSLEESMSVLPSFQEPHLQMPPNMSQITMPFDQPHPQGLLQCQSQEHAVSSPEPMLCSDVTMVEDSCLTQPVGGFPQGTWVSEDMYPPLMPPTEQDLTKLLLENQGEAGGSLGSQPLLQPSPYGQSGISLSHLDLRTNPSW
Nature of the data set: Inhibition of STAT6 phosphorylation in mouse BAF3 cells at 1000 nM after 2 hrs by Western blot analysis. Format: cell-based.

For data set [6], the system named is SET-2. As to the kind of experiment: Induction of apoptosis in human SET-2 cells assessed as early apoptotic cells at 0.2 uM incubated for 24 hrs by Annexin V/PI staining based flow cytometric analysis (reference value: 1.47 %). Format: functional.
In data set [7] the test system is Tyrosine-protein kinase JAK2 (Homo sapiens), O60674 [V617F]. As to the kind of experiment: Inhibition of JAK2 V617F mutant in human SET-2 cells assessed as reduction in STAT5 phosphorylation after 2 hrs by Western blot analysis. The settings on record: SET2, dose 1-1000 nM. The format is cell-based. For orientation: In western blotting, separated proteins are transferred to a membrane and probed.
Chain of Tyrosine-protein kinase JAK2 (Homo sapiens), O60674 [V617F] (O60674 whole entry V617F): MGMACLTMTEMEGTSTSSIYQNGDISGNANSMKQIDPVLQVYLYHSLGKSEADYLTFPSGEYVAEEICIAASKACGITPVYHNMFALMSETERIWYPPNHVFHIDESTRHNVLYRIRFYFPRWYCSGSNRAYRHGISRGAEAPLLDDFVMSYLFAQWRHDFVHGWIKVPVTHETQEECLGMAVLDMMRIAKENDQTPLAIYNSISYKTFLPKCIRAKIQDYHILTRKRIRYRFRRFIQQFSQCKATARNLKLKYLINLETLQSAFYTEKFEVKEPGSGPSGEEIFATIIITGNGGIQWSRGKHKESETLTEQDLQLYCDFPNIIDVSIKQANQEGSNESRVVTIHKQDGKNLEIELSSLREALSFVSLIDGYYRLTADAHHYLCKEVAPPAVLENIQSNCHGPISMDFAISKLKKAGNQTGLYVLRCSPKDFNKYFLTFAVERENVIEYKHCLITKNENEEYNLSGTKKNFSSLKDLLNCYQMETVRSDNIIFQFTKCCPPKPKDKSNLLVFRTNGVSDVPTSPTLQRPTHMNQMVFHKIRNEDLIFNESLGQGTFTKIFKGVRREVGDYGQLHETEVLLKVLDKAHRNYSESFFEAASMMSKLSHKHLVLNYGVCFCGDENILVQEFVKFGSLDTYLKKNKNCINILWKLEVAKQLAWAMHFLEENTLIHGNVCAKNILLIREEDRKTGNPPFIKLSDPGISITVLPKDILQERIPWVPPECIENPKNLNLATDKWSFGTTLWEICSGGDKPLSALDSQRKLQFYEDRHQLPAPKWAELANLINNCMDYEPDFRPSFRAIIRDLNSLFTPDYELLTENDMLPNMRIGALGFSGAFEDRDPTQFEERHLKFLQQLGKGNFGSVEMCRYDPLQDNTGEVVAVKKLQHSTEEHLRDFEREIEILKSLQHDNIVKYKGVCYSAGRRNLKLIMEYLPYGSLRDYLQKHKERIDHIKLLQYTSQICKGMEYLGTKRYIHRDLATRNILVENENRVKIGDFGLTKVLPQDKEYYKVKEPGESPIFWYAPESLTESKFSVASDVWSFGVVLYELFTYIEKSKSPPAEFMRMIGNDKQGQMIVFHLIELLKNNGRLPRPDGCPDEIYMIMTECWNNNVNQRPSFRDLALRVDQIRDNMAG

Data set [8] concerns SET-2. As to the kind of experiment: Induction of apoptosis in human SET-2 cells assessed as late apoptotic cells at 0.4 uM incubated for 24 hrs by Annexin V/PI staining based flow cytometric analysis (reference value: 1.52%). The format is functional.
Data set [9] concerns SET-2. As to the kind of experiment: Induction of apoptosis in human SET-2 cells assessed as live cells at 0.4 uM incubated for 24 hrs by Annexin V/PI staining based flow cytometric analysis (reference value: 96.23 %). Format: functional.
In data set [10] the test system is BaF3. Nature of the data set: Antitumor activity against mouse BAF3 cells harboring JAK2 V617F mutant implanted in Balb/c mouse assessed as decrease in liver weight at 60 mg/kg, po qd administered starting from day 4 to 20 and measured on day 25 relative to control. The format is functional. Also on record: scale not given: the % may be the effect or the level left. The settings on record: time 21 day.

Data set [11] concerns BaF3. Nature of the data set: Antitumor activity against mouse BAF3 cells harboring JAK2 V617F mutant implanted in Balb/c mouse assessed as decrease in liver weight at 30 mg/kg, po qd administered starting from day 4 to 20 and measured on day 25 relative to control. Format: functional. The settings on record: time 21 day. Also on record: scale not given: the % may be the effect or the level left.

The nature of data set [12]: Toxicity in NOD/SCID mouse xenografted with human SET2 cells assessed as animal survival at 15 mg/kg, po qd administered for 16 days and measured every 2 days. Format: organism-based. The settings on record: in vivo, 384 h, time 16 day. (A xenograft is tissue or cells of one species grown in another, often human tumour cells in immunodeficient mice.)
For data set [13], the system named is BaF3. As to the kind of experiment: Antitumor activity against mouse BAF3 cells harboring JAK2 V617F mutant implanted in Balb/c mouse assessed as decrease in spleen weight at 30 mg/kg, po qd administered starting from day 4 to 20 and measured on day 25 relative to control. Format: functional. Also on record: scale not given: the % may be the effect or the level left. The settings on record: time 21 day.

The nature of data set [14]: AUC (0 to t) in Sprague-Dawley rat at 5 mg/kg, iv administered […] measured upto 24 hrs by LC/MS/MS analysis. Format: ADME, organism-based. Also noted: route intravenous, dose 5 mg/kg, time <=24. The settings on record: in vivo.
Data set [15] is described as follows: Cmax in male Sprague-Dawley rat at 5 mg/kg, po administered via gavage measured upto 24 hrs by LC/MS/MS analysis. Format: ADME, organism-based. Also on record: route oral, dose 5 mg/kg, time <=24. The settings on record: in vivo.
For data set [16], the system named is SET-2. As to the kind of experiment: Induction of apoptosis in human SET-2 cells assessed as necrotic cells at 0.8 uM incubated for 24 hrs by Annexin V/PI staining based flow cytometric analysis (reference value: 0.78%). Format: functional.
Data set [17] in a line: Oral bioavailability in Sprague-Dawley rat at 5 mg/kg administered via gavage measured upto 24 hrs by LC/MS/MS analysis. The settings on record: in vivo. Format: ADME, organism-based.
The subject of data set [18] is SET-2. Nature of the data set: Induction of apoptosis in human SET-2 cells assessed as late apoptotic cells at 0.8 uM incubated for 24 hrs by Annexin V/PI staining based flow cytometric analysis (reference value: 1.52%). Format: functional.
Data set [19] is described as follows: AUC (0 to t) in Sprague-Dawley rat at 5 mg/kg, po administered via gavage measured upto 24 hrs by LC/MS/MS analysis. Also noted: route oral, dose 5 mg/kg, time <=24. Format: ADME, organism-based. The settings on record: in vivo.
For data set [20], the system named is SET-2. As to the kind of experiment: Antitumor activity against human SET2 cells xenografted in NOD/SCID mouse assessed as tumor growth inhibition at 30 mg/kg, po qd administered for 16 days and measured every 2 days relative to control. Format: functional. The settings on record: SET-2, po, 384 h, time 16 day, read-out: TGI.
The subject of a further data set is Vero. Nature of the data set: Cytotoxicity against African green monkey Vero cells assessed as reduction in cell viability incubated for 72 hrs by MTT assay. The format is cell-based. The settings on record: Chlorocebus sabaeus.
Data set [21] in a line: Metabolic stability in rat liver microsomes assessed as half-life. Format: ADME, Microsome.
For data set [22], the system named is SET-2. As to the kind of experiment: Induction of apoptosis in human SET-2 cells assessed as late apoptotic cells at 0.2 uM incubated for 24 hrs by Annexin V/PI staining based flow cytometric analysis (reference value: 1.52%). The format is functional.
Data set [23] deals with SET-2. Nature of the data set: Induction of apoptosis in human SET-2 cells assessed as necrotic cells at 1.6 uM incubated for 24 hrs by Annexin V/PI staining based flow cytometric analysis (reference value: 0.78%). The format is functional.

Calls of active or inactive are those of the source.

Regarding `Cc1cnc(Nc2ccc3c(c2)CCN(C(=O)/C=C/CN(C)C)C3)nc1-c1cnn(C(C)C)c1`, the Ratio IC50 in data set [1] amounted to 25. Further, the Activity in the data set on SET-2 [2] amounted to 45.54%; in the data set with SET-2 [3], 90.35%; in the data set on BaF3 [4], 77.1%; with SET-2 [6] it was 3.36%; with SET-2 [8], 8.68%; in the data set on SET-2 [9], 84.92%. For the same molecule, the Activity with BaF3 [10] is recorded as 66.3%; in the data set on BaF3 [11], 36.2%; in data set [12] it was “Non-Toxic”; with BaF3 [13] it was 44%; in the data set with SET-2 [16], 1.37%; with SET-2 [18] it was 40.19%. For the same molecule, the Activity in the data set with SET-2 [22] is given as 5.66%; in the data set on SET-2 [23] it was 4.04%. In addition, in data set [5], the inhibition result is “inactive”. For the same molecule, the inhibition entry in data set [7] was “Dose-dependent effect”. Also, the AUC(0-t) at 24 h in data set [14] stood at 988 ng·h/mL; in data set [19], 254 ng·h/mL. Besides, the peak level in data set [15] (Cmax) was 51.1 ng/mL. Besides, the bioavailability in data set [17] is 25.7%. Further, the inhibition in vivo at 30 mg/kg with SET-2 [20] turned out to be 67.8%. In the data set with Vero, the IC50 is 6.75 µM. In [21], the half-life turned out to be 54.6 min.

Broadly, the AUC(0-t) is exposure summed from dosing to a finite time, without extrapolation to infinity. By Cmax is commonly meant the maximum level reached in the sampled fluid or tissue. For orientation: bioavailability means dose-corrected exposure relative to a reference, in per cent. As a reminder, the IC50 is the concentration needed to halve the response being measured. A word on the half-life: it is the time needed for the level to fall by half in the phase considered.
